pIC50: −log10 of the molar value.
Biological target: T1, squalene synthase (Rattus norvegicus, UniProt Q02769)
T1 construct: incubating rat liver homogenate with various concentrations of the test compound; from tissue; host or cells: rat liver homogenate
T1 sequence (Q02769 1-416): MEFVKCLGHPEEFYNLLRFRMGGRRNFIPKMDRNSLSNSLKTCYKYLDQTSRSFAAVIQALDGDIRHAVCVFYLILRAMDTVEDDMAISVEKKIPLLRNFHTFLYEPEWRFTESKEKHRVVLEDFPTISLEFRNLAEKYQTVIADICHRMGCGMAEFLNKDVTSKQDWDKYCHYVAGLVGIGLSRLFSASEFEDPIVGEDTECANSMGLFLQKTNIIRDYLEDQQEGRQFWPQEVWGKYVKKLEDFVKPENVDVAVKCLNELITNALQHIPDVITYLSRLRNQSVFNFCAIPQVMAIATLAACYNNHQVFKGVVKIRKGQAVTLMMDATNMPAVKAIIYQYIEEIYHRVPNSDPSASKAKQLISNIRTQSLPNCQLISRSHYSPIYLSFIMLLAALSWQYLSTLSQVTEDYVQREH
Assay: Inhibition of squalene synthase in rat liver homogenate
Format: biochemical
Details: [2-14C] farnesylpyrophosphate as substrate, 30 minute assay, read-out: IC50 (concentration of compound giving 50% inhibition of [14C] squalene production)
Protocol: Acta, Volume 877, 50-60 (1986) and modified to include measurement of cholesterol by high performance liquid chromatography (h.p.l.c.).
[^14 C] Squalene was separated from unreacted substrate on thin layer chromatography plates and determined by liquid scintillation counting. Inhibition of squalene synthase was quantified by incubating rat liver homogenate with various concentrations of the test compound in the presence of [2-^14 C] farnesylpyrophosphate. The concentration of compound giving 50% inhibition of [^14 C] squalene production in a 30 minute assay was taken as the IC50 value.

SMILES | pIC50
C=C(CC[C@@]12C[C@@H](OC(=O)/C=C/[C@@H](C)C[C@@H](C)CC)[C@@](C(=O)O)(O1)[C@](O)(C(=O)O)[C@@H](C(=O)O)O2)[C@@H](OC(C)=O)[C@H](C)Cc1ccccc1 [Compound O, [1S-[1α(4R*,5S*),3α,4β,5α,6α(2E,4R*,6R*)]]1-4-acetyloxy-5-methyl-3-methylene-6-phenylhexyl)-4,6-dihydroxy-2,8-dioxabicyclo[3.2.1]octane-3,4,5-tricarboxylic acid, 6-(4,6-dimethyl-2-octenoate)] | > 7.00
C=C(CC[C@]12O[C@H](C(=O)O)[C@@](O)(C(=O)O)[C@](C(=O)O)(O1)[C@H](OC(=O)/C=C/[C@@H](C)C[C@@H](C)CC)[C@H]2O)C(O)C(CO)Cc1ccccc1 (some centres unmarked) [Compound N] | > 7.00
C=C(CC[C@]12O[C@H](C(=O)OC)[C@@](O)(C(=O)O)[C@](C(=O)O)(O1)[C@H](OC(=O)/C=C/[C@@H](C)C[C@@H](C)CC)[C@H]2O)[C@@H](O)[C@H](C)Cc1ccccc1 [Compound E, [1S-[1α(4R*,5S*),3α,4β,5α,6α(2E,4R*,6R*),7β]]1-(4-hydroxy-5-methyl-3-methylene-6-phenylhexyl)-4,6,7-trihydroxy-2,8-dioxabicyclo[3.2.1]octane-3,4,5-tricarboxylic acid, 6-(4,6-dimethyl-2-octenoate), 3-methyl ester] | > 7.00
C=C(CC[C@]12O[C@H](C(=O)O)[C@@](O)(C(=O)O)[C@](C(=O)O)(O1)[C@H](OC(=O)/C=C/[C@@H](C)C[C@@H](C)CC)[C@H]2O)C(NC(C)=O)C(C)Cc1ccccc1 (some centres unmarked) [Compound B1] | > 7.00
C=C(CC[C@@]12O[C@H](C(=O)O)[C@@](O)(C(=O)O)[C@@](C(=O)O)(C[C@H]1O)O2)[C@@H](OC(C)=O)[C@H](C)Cc1ccccc1 [Compound V, [1S-[1α(4R*,5S*),3α,4β,5α,7β]]1-(4-acetyloxy-5-methyl-3-methylene-6-phenylhexyl)-4,7-dihydroxy-2,8-dioxabicyclo[3.2.1]octane-3,4,5-tricarboxylic acid] | > 7.00
CC[C@H](C)C[C@H](C)/C=C/C(=O)O[C@@H]1[C@@H](O)[C@@]2(CC/C(C)=C/C(C)Cc3ccccc3)O[C@H](C(=O)O)[C@@](O)(C(=O)O)[C@]1(C(=O)O)O2 (some centres unmarked) [Compound A1] | > 7.00
CC[C@H](C)C[C@H](C)/C=C/C(=O)O[C@@H]1[C@@H](O)[C@@]2(CC/C(=C\C(C)Cc3ccccc3)CNC(C)=O)O[C@H](C(=O)O)[C@@](O)(C(=O)O)[C@]1(C(=O)O)O2 (some centres unmarked) [Compound T] | > 7.00

Now from value to molecule:

pIC50 | SMILES
> 7.00 | C=C(CC[C@]12O[C@H](C(=O)O)[C@@](O)(C(=O)O)[C@](C(=O)O)(O1)[C@H](OC(=O)/C=C/[C@@H](C)C[C@@H](C)CC)[C@H]2O)[C@@H](O)[C@H](C)Cc1ccccc1 [Compound B, [1S-[1α(4R*,5S*),3α,4β,5α,6α(2E,4R*,6R*),7 β9]1-(4-hydroxy-5-methyl-3-methylene-6-phenylhexyl)-4,6,7-trihydroxy-2,8-dioxabicyclo[3.2.1]octane-3,4,5-tricarboxylic acid, 6-(4,6-dimethyl-2-octenoate)]
> 7.00 | C=C(CC[C@]12O[C@H](C(=O)O)[C@@](O)(C(=O)O)[C@](C(=O)O)(O1)[C@H](OC(=O)/C=C/C(C)=C/C(C)CC)[C@H]2O)[C@@H](OC(C)=O)[C@H](C)Cc1ccccc1 (some centres unmarked) [Compound H]
> 7.00 | C=C(CC[C@]12O[C@H](C(=O)O)[C@@](O)(C(=O)O)[C@](C(=O)O)(O1)[C@H](OC(=O)/C=C/C(C)(O)CC(C)CC)[C@H]2O)[C@@H](O)[C@H](C)Cc1ccccc1 (some centres unmarked) [Compound C1]
> 7.00 | C=C(CC[C@]12O[C@H](C(=O)O)[C@@](O)(C(=O)O)[C@](C(=O)O)(O1)[C@H](OC(=O)CC(O)C(C)CC(C)CC)[C@H]2O)[C@@H](OC(C)=O)[C@H](C)Cc1ccccc1 (some centres unmarked) [Compound I]
> 7.00 | C=C(CC[C@]12O[C@H](C(=O)O)[C@@](O)(C(=O)O)[C@](C(=O)O)(O1)[C@H](OC(=O)/C=C/C(C)CCCC)[C@H]2O)[C@@H](OC(C)=O)[C@H](C)Cc1ccccc1 (some centres unmarked) [Compound G]
> 7.00 | C=C(CC[C@]12O[C@H](C(=O)O)[C@@](O)(C(=O)O)[C@](C(=O)O)(O1)[C@H](OC(=O)CC(O)CCC(C)CC)[C@H]2O)[C@@H](O)[C@H](C)Cc1ccccc1 (some centres unmarked) [Compound W]
> 7.00 | C=C(CC[C@]12O[C@H](C(=O)O)[C@@](O)(C(=O)O)[C@](C(=O)O)(O1)[C@H](OC(=O)CC(O)CCC(C)CC)[C@H]2O)[C@@H](OC(C)=O)[C@H](C)Cc1ccccc1 (some centres unmarked) [Compound L]
> 7.00 | C=C(CC[C@]12O[C@H](C(=O)O)[C@@](O)(C(=O)O)[C@](C(=O)O)(O1)[C@H](OC(=O)CC(O)C(C)CC(C)CC)[C@H]2O)[C@@H](O)[C@H](C)Cc1ccccc1 (some centres unmarked) [Compound M]
> 7.00 | C=C(CC[C@]12O[C@H](C(=O)O)[C@@](O)(C(=O)O)[C@](C(=O)O)(O1)[C@H](OC(=O)CCC(C)CC(C)CC)[C@H]2O)[C@@H](OC(C)=O)[C@H](C)Cc1ccccc1 (some centres unmarked) [Compound U]
> 7.00 | C=C(CC[C@]12O[C@H](C(=O)O)[C@@](O)(C(=O)O)[C@](C(=O)O)(O1)[C@H](OC(=O)/C=C/C(C)(O)CC(C)CC)[C@H]2O)[C@@H](OC(C)=O)[C@H](C)Cc1ccccc1 (some centres unmarked) [Compound K]

Source: patent publication US5409950A, “Cyclic ketal derivatives” (Glaxo Group Limited, priority 1991, dated 1995)
